Reference: US12187712B2, “Cardiac sarcomere inhibitors” (Cytokinetics, Inc., priority 2018, dated 2025)

What follows are compounds tested against T1, bovine cardiac myofibrils (Bos taurus, UniProt Q9BE39) (assay: Skinned myofibril ATPase assay (PK/LDH-coupled), CDMF75). Conditions: inhibition of steady-state ATPase activity of bovine cardiac myofibrils at 75% Ca2+ activation (pCa75).
T1 construct: full-length cardiac myosin in the context of the native sarcomere, skinned myofibril assays were performed; from tissue; host or cells: bovine cardiac left ventricular tissue, detergent-skinned (Triton X-100) myofibrils
Assay type: biochemical
Protocol: To evaluate the effect of compounds on the ATPase activity of full-length cardiac myosin in the context of the native sarcomere, skinned myofibril assays were performed. Bovine cardiac myofibrils were obtained by homogenizing bovine cardiac left ventricular tissue in the presence of a detergent such as triton X-100. Such treatment removes membranes and a majority of the soluble cytoplasmic proteins but leaves intact the cardiac sarcomeric acto-myosin apparatus. Myofibril preparations retain the ability to hydrolyze ATP in an Ca^2+ regulated manner. ATPase activities of such myofibril preparations in the presence and absence of compounds were assayed at Ca^2+ concentrations activating to a defined fraction of the maximal rate (i.e., 25%, 75%). Small molecule agents were assessed for their ability to inhibit the steady-state ATPase activity of bovine cardiac myofibrils using pyruvate kinase and lactate dehydrogenase (PK/LDH)-coupled enzyme system. This assay regenerates myosin-produced ADP into ATP by oxidizing NADH, producing an absorbance change at 340 nm. Prior to testing small molecule agents, the bovine cardiac myofibrils were assessed for their calcium responsiveness and the calcium concentration that achieves either a 50% (pCa50) or 75% (pCa75) activation of the myofibril system was chosen as the final condition for assessing the inhibitory activity of the small molecule agents. All enzymatic activity was measured in a buffered solution containing 12 mM PIPES (piperazine-N,N′-bis(2-ethanesulfonic acid), 2 mM magnesium chloride at pH 6.8 (PM 12 buffer). Final assay conditions were 1 mg/mL of bovine cardiac myofibrils, 4 U/mL pyruvate kinase, 6 U/mL lactate dehydrogenase, 50 μM ATP, 0.1 mg/mL BSA (bovine serum albumin), 10 ppm antifoam, 1 mM DTT, 0.5 mM NADH, 1.5 mM PEP, 0.6 mM EGTA, and an amount of CaCl2 sufficient to achieve either 50% or 75% activation of the myofibril ATPase activity. Results for compounds tested are provided in Table A. Compounds tested were prepared in accordance with the synthetic procedures described herein.

T1 sequence (Q9BE39 whole entry): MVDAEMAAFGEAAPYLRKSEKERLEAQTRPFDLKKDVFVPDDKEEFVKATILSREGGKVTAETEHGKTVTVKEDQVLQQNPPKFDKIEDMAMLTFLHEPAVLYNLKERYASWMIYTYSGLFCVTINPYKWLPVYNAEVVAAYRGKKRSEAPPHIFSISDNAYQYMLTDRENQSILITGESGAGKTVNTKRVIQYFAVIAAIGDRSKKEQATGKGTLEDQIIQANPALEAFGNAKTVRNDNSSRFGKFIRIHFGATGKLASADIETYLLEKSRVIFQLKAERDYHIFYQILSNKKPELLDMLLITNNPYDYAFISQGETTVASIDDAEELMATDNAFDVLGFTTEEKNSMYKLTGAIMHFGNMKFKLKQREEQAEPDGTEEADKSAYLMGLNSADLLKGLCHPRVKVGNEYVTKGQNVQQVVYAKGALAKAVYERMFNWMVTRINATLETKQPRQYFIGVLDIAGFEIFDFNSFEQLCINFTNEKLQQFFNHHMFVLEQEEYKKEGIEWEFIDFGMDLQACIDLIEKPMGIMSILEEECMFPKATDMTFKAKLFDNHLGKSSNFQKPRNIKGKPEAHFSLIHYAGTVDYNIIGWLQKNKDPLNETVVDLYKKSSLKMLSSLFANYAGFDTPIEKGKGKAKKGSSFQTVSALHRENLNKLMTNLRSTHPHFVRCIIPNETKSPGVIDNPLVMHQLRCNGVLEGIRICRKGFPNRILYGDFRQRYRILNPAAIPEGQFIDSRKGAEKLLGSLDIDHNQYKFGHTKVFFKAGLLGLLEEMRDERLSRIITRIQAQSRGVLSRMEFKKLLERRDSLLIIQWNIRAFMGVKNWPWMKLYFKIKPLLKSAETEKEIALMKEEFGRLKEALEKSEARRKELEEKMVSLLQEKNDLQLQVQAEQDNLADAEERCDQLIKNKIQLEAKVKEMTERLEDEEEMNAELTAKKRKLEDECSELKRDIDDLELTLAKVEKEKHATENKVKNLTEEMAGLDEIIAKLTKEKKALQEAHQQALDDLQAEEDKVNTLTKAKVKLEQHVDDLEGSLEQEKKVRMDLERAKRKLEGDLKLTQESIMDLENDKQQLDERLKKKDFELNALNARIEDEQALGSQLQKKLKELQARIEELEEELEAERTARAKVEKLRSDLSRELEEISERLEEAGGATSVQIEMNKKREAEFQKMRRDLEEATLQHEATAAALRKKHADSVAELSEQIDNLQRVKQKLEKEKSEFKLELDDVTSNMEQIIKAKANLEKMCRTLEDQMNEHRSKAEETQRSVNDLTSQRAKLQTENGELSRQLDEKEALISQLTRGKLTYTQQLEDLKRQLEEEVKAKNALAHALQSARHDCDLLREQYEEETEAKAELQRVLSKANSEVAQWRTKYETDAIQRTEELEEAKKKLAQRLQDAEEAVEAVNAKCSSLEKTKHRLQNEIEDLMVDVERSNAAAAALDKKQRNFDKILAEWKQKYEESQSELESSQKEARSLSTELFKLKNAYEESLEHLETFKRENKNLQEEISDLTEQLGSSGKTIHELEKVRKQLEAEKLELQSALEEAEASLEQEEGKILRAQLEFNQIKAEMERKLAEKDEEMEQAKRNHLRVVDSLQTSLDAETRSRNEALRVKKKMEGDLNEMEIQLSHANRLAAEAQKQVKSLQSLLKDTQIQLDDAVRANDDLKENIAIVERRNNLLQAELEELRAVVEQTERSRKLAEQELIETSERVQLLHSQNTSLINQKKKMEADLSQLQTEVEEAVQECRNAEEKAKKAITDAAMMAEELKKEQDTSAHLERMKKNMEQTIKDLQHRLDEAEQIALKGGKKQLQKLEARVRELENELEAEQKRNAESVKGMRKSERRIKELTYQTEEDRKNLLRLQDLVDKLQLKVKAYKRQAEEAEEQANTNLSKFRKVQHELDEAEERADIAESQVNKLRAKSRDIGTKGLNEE
T1 sequence (P85100 whole entry partner): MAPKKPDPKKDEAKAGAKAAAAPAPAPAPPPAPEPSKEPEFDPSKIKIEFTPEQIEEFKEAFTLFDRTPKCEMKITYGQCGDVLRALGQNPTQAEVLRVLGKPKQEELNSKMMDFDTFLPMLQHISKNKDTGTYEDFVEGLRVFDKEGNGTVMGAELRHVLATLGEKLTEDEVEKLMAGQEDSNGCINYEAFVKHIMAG
T1 sequence (Q3SZE5 whole entry partner): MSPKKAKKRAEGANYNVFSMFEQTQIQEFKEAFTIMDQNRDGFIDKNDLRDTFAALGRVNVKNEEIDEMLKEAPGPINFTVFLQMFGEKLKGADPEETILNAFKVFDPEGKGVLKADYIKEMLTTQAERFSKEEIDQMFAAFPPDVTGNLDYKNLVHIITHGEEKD

| SMILES | CDMF75 IC15 | IC50 |
| --- | --- | --- |
| Cc1cc(-c2ccc(CNc3ccn(C)n3)cc2)no1 [Compound 64, 1-methyl-N-(4-(5-methylisoxazol-3-yl)benzyl)-1H-pyrazol-3-amine] | 7.7 µM | > 39.2 µM |
| COc1cccc(NCc2ccc(-c3cc(C)on3)cc2)n1 [Compound 71, 6-methoxy-N-[[4-(5-methyl-1,2-oxazol-3-yl)phenyl]methyl]pyridin-2-amine] | >39.2 µM | > 39.2 µM |
| Cc1nc(-c2ccc(CNc3ccc(C#N)cn3)cc2)no1 [Compound 14, 6-((4-(5-methyl-1,2,4-oxadiazol-3-yl)benzyl)amino) nicotinonitrile] | 4.6 µM | 20.9 µM |
| Cc1cnc(-c2ccc(CNc3cc(Cl)ncn3)cc2)o1 [Compound 27, 6-chloro-N-(4-(5-methyloxazol-2-yl)benzyl)pyrimidin-4-amine] | 1.2 µM | 8.9 µM |
| Cc1nc(-c2ccc(CNC(=O)c3ccccc3)cc2)no1 [Compound 50, N-(4-(5-methyl-1,2,4-oxadiazol-3-yl)benzyl)benzamide] | 3.4 µM | 15.1 µM |
| Cc1cnc(-c2ccc(CNc3cnccn3)cc2)s1 [Compound 48, N-[[4-(5-methyl-1,3-thiazol-2-yl)phenyl]methyl]pyrazin-2-amine] | 4.0 µM | 19 µM |
| C[C@@H](Nc1cnccn1)c1ccc(-c2noc(C(C)(C)C)n2)cc1 [Compound 36, (R)-N-(1-(4-(5-(tert-butyl)-1,2,4-oxadiazol-3-yl)phenyl)ethyl)pyrazin-2-amine] | 7.1 µM | 36.5 µM |
| Cc1nc(-c2ccc(CNc3ccnc(Cl)c3)cc2)no1 [Compound 44, 2-chloro-N-(4-(5-methyl-1,2,4-oxadiazol-3-yl)benzyl)pyridin-4-amine] | 2.2 µM | 10.9 µM |
| Cc1nc(-c2ccc(CNc3cnccn3)cc2)no1 [Compound 2, N-(4-(5-methyl-1,2,4-oxadiazol-3-yl)benzyl)pyrazin-2-amine] | 0.8 µM | 4.3 µM |
| Cc1nc(-c2ccc(CNc3cnccn3)cc2F)no1 [Compound 41, N-(3-fluoro-4-(5-methyl-1,2,4-oxadiazol-3-yl)benzyl)pyrazin-2-amine] | 0.7 µM | 3.9 µM |
| FC(F)(F)c1nc(-c2ccc(CNc3cnccn3)cc2)no1 [Compound 70, N-(4-(5-(trifluoromethyl)-1,2,4-oxadiazol-3-yl)benzyl)pyrazin-2-amine] | 0.8 µM | 4.1 µM |
| Cc1nc(-c2ccc(CNC(=O)Oc3ccccc3)cc2)no1 [Compound 58, phenyl (4-(5-methyl-1,2,4-oxadiazol-3-yl)benzyl)carbamate] | 2.3 µM | 11.4 µM |
| Cc1nc(-c2ccc(CNC(=O)c3ccncc3O)cc2)no1 [Compound 63, 3-hydroxy-N-(4-(5-methyl-1,2,4-oxadiazol-3-yl)benzyl)isonicotinamide] |  | > 39.2 µM |
| Cc1nc(-c2ccc(CNc3cc(C(F)(F)F)ncn3)cc2)no1 [Compound 5, N-(4-(5-methyl-1,2,4-oxadiazol-3-yl)benzyl)-6-(trifluoromethyl)pyrimidin-4-amine] |  | 3.7 µM |
| Cc1cc(-c2ccc(CNc3cc(=O)[nH]cn3)cc2)no1 [Compound 65, 6-((4-(5-methylisoxazol-3-yl)benzyl)amino)pyrimidin-4(3H)-one] | 7.6 µM | > 39.2 µM |
| CCc1cc(NCc2ccc(-c3noc(C)n3)cc2)ncn1 [Compound 8, 6-ethyl-N-(4-(5-methyl-1,2,4-oxadiazol-3-yl)benzyl)pyrimidin-4-amine] | 3.1 µM | 16.6 µM |
| Cc1nc(-c2ccc(C(C)Nc3cc(Cl)ncn3)cc2)no1 (centres unmarked) [Compound 21, 6-chloro-N-(1-(4-(5-methyl-1,2,4-oxadiazol-3-yl)phenyl)ethyl)pyrimidin-4-amine] | 2.2 µM | 12.8 µM |
| Cc1nc(-c2ccc(CNc3cc(C#N)ccn3)cc2)no1 [Compound 15, 2-((4-(5-methyl-1,2,4-oxadiazol-3-yl)benzyl)amino) isonicotinonitrile] | 1.0 µM | 5.5 µM |
| Cc1nc(-c2ccc(CNC(=O)OCc3ccccc3)cc2)no1 [Compound 57, benzyl (4-(5-methyl-1,2,4-oxadiazol-3-yl)benzyl)carbamate] | 3.1 µM | 19.3 µM |
| Cc1nc(-c2ccc(CNc3cncc(Cl)n3)cc2)no1 [Compound 1, 6-chloro-N-(4-(5-methyl-1,2,4-oxadiazol-3-yl)benzyl)pyrazin-2-amine] | 1.4 µM | 8.1 µM |
| Cc1cc(-c2nc(-c3ccc([C@@H](C)Nc4cnccn4)cc3)no2)on1 [Compound 38, (R)-N-(1-(4-(5-(3-methylisoxazol-5-yl)-1,2,4-oxadiazol-3-yl)phenyl)ethyl)pyrazin-2-amine] | 3.0 µM | 19.1 µM |
| FCc1nc(-c2ccc(CNc3cnccn3)cc2)no1 [Compound 25, N-(4-(5-(fluoromethyl)-1,2,4-oxadiazol-3-yl)benzyl)pyrazin-2-amine] | 1.1 µM | 4.5 µM |
| Cc1nc(-c2ccc(CNc3cc(C#N)ncn3)nc2)no1 [Compound 17, 6-(((5-(5-methyl-1,2,4-oxadiazol-3-yl)pyridin-2-yl)methyl)amino)pyrimidine-4-carbonitrile] | 2.9 µM | 18.9 µM |

The next compounds have a lower IC50 than those just listed; values first:

| CDMF75 IC15 | IC50 | SMILES |
| --- | --- | --- |
| 0.7 µM | 3 µM | CC(C)c1nc(-c2ccc([C@@H](C)Nc3cnccn3)cc2)no1 [Compound 35, (R)-N-(1-(4-(5-isopropyl-1,2,4-oxadiazol-3-yl)phenyl)ethyl)pyrazin-2-amine] |
| 0.5 µM | 2.6 µM | COC(=O)c1nc(-c2ccc(CNc3cnccn3)cc2)no1 [Compound 30, methyl 3-(4-((pyrazin-2-ylamino)methyl)phenyl)-1,2,4-oxadiazole-5-carboxylate] |
| 0.4 µM | 2.2 µM | Cc1nc(-c2ccc(CNc3cnccn3)c(F)c2)no1 [Compound 46, N-(2-fluoro-4-(5-methyl-1,2,4-oxadiazol-3-yl)benzyl)pyrazin-2-amine] |
| 0.7 µM | 2.2 µM | Cc1nc(-c2ccc3c(c2)CCCC3Nc2cnccn2)no1 (centres unmarked) [Compound 59, N-(6-(5-methyl-1,2,4-oxadiazol-3-yl)-1,2,3,4-tetrahydronaphthalen-1-yl)pyrazin-2-amine] |
|  | 1.8 µM | Cc1nc(-c2ccc(CNc3cc(C#N)ncn3)cc2)no1 [Compound 7, 6-((4-(5-methyl-1,2,4-oxadiazol-3-yl)benzyl)amino)pyrimidine-4-carbonitrile] |
| 0.4 µM | 1.8 µM | c1cnc(NCc2ccc(-c3noc(C4CC4)n3)cc2)cn1 [Compound 22, N-(4-(5-cyclopropyl-1,2,4-oxadiazol-3-yl)benzyl)pyrazin-2-amine] |
| 0.4 µM | 1.7 µM | C[C@@H](Nc1cnccn1)c1ccc(-c2noc(-c3ccsc3)n2)cc1 [Compound 43, (R)-N-(1-(4-(5-(thiophen-3-yl)-1,2,4-oxadiazol-3-yl)phenyl)ethyl)pyrazin-2-amine] |
| 0.3 µM | 1.7 µM | COc1cc(NCc2ccc(-c3cc(C)on3)cc2)ncn1 [Compound 66, 6-methoxy-N-(4-(5-methylisoxazol-3-yl)benzyl)pyrimidin-4-amine] |
| 0.3 µM | 1.5 µM | C[C@@H](Nc1cnccn1)c1ccc(-c2noc(C(F)F)n2)cc1 [Compound 33, (R)-N-(1-(4-(5-(difluoromethyl)-1,2,4-oxadiazol-3-yl)phenyl)ethyl)pyrazin-2-amine] |
| 0.3 µM | 1.2 µM | Cc1nc(-c2ccc(CNc3cc(Cl)ncn3)cc2)no1 [Compound 9, 6-chloro-N-(4-(5-methyl-1,2,4-oxadiazol-3-yl)benzyl)pyrimidin-4-amine] |
| 0.3 µM | 1.1 µM | C[C@@H](Nc1cnccn1)c1ccc(-c2noc(-c3cccs3)n2)cc1 [Compound 40, (R)-N-(1-(4-(5-(thiophen-2-yl)-1,2,4-oxadiazol-3-yl)phenyl)ethyl)pyrazin-2-amine] |
| 0.2 µM | 0.9 µM | Cc1onc(-c2ccc(CNc3cnccn3)cc2)c1I [Compound 51, N-(4-(4-iodo-5-methylisoxazol-3-yl)benzyl)pyrazin-2-amine] |
| 0.2 µM | 0.9 µM | C[C@@H](Nc1cnccn1)c1ccc(-c2noc(-c3ccco3)n2)cc1 [Compound 39, (R)-N-(1-(4-(5-(furan-2-yl)-1,2,4-oxadiazol-3-yl)phenyl)ethyl)pyrazin-2-amine] |
| 0.2 µM | 0.7 µM | CCc1nc(-c2ccc(CNc3cc(C#N)ncn3)cc2)no1 [Compound 11, 6-((4-(5-ethyl-1,2,4-oxadiazol-3-yl)benzyl)amino)pyrimidine-4-carbonitrile] |
